According to US20170121315A1, “HETEROBICYCLICALLY SUBSTITUTED 4-OXOBUTANE ACID DERIVATIVES AND USE THEREOF” (priority 2014, published 2017):

Columns and labels:
rat hepatocytes = assay: Hepatocyte assay for determination of metabolic stability; assay type: in vitro ADME; settings: after incubation with rat hepatocytes
Protocol: The metabolic stability of test compounds towards hepatocytes is determined by incubating the compounds at low concentrations (preferably below or around 1 μM) and at low cell counts (preferably at 1*10^6 cells/ml) in order to ensure maximum linearity of kinetic conditions in the experiment. Seven samples from the incubation solution are taken for the LC-MS analysis within a fixed time pattern, in order to determine the half-life (i.e. the degradation) of the particular compound. This half-life is used to calculate various “Clearance” parameters (CL) and “Fmax” values (see below).
The CL and Fmax values are a measure of the phase 1 and phase 2 metabolism of the compounds in the hepatocytes. In order to minimize the influence of the organic solvent on the enzymes in the incubation batches, the concentration thereof is generally limited to 1% (acetonitrile) or 0.1% (DMSO).
For all species and breeds, a hepatocyte cell count in the liver of 1.1*10^8 cells/g of liver is expected.

[1] = target: T1, human macrophage elastase (HME/hMMP-12) (Homo sapiens, UniProt P39900); assay: In vitro HME inhibition test (standard or high-sensitivity); assay type: biochemical; settings: in some cases mean values, rounded to two significant figures
T1 construct: purchased R&D Systems 917-MP
Method in brief: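 Autoactivated HME (0.5 nM; high-sensitivity format 0.05 nM, ~16 h) with 5 μM quenched Mca-PLGLEEA-Dap(Dnp)-NH2 substrate in HEPES pH 7.4, NaCl, CaCl2, ZnCl2, EDTA, Brij buffer, 2 h at 37° C. Fluorescence at ex 323/em 393 nm; IC50 from signal versus concentration.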

T1 sequence (P39900 106-470): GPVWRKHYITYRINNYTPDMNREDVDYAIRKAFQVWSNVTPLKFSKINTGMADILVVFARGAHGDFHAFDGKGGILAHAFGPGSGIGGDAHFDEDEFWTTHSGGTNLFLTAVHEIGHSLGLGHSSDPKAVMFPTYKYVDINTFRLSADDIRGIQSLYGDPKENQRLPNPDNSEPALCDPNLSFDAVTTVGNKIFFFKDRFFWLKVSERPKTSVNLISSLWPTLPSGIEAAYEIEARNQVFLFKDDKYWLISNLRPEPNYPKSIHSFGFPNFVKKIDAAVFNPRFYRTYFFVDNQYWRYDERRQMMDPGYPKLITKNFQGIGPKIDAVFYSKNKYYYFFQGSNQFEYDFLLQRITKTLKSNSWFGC

SMILES | CLblood (calculated blood clearance, well-stirred) (rat hepatocytes) | Fmax (maximum possible bioavailability after oral administration, well-stirred) (rat hepatocytes) | IC50 [1]
NC(=O)c1cccc(COc2ccc3oc(C(=O)CC(CCn4nnc5ccccc5c4=O)C(=O)O)cc3c2)c1 (racemic) [Example 32, (+/−)-4-{5-[(3-Carbamoylbenzyl)oxy]-1-benzofur-2-yl}-4-oxo-2-[2-(4-oxo-1,2,3-benzotriazin-3(4H)-yl)ethyl]butanoic acid] | 22 mL/min/kg | 68.5% | 0.68 nM
CS(=O)(=O)c1ccc(COc2ccc3oc(C(=O)CC(CCn4nnc5ccccc5c4=O)C(=O)O)cc3c2)cc1 (racemic) [Example 38, (+/−)-4-(5-{[4-(Methylsulphonyl)benzyl]oxy}-1-benzofur-2-yl)-4-oxo-2-[2-(4-oxo-1,2,3-benzotriazin-3(4H)-yl)ethyl]butanoic acid] | 12.5 mL/min/kg | 82.1% | 0.72 nM
CCCCCCOc1ccc2c(C(=O)CC(CCn3nnc4ccccc4c3=O)C(=O)O)coc2c1 (single isomer, unassigned; (-)) [Example 99, (−)-4-[6-(Hexyloxy)-1-benzofur-3-yl]-4-oxo-2-[2-(4-oxo-1,2,3-benzotriazin-3(4H)-yl)ethyl]butanoic acid] | – | – | 100 nM
CCCCCCCOc1ccc2c(C(=O)CC(CCn3nnc4ccccc4c3=O)C(=O)O)coc2c1 (single isomer, unassigned; (-)) [Example 102, (−)-4-[6-(Heptyloxy)-1-benzofur-3-yl]-4-oxo-2-[2-(4-oxo-1,2,3-benzotriazin-3(4H)-yl)ethyl]butanoic acid] | – | – | 2100 nM
CC(C)COc1ccc2c(C(=O)CC(CCn3nnc4ccccc4c3=O)C(=O)O)coc2c1 (single isomer, unassigned; (-)) [Example 106, (−)-4-(6-Isobutoxy-1-benzofur-3-yl)-4-oxo-2-[2-(4-oxo-1,2,3-benzotriazin-3(4H)-yl)ethyl]butanoic acid] | – | – | 31 nM
CCCCOc1ccc2c(C(=O)CC(CCn3nnc4ccccc4c3=O)C(=O)O)coc2c1 (single isomer, unassigned; (-)) [Example 109, (−)-4-(6-Butoxy-1-benzofur-3-yl)-4-oxo-2-[2-(4-oxo-1,2,3-benzotriazin-3(4H)-yl)ethyl]butanoic acid] | – | – | 10 nM
O=C(CC(CCn1nnc2ccccc2c1=O)C(=O)O)c1cc2ccc(OCC3CC3)cc2s1 (single isomer, unassigned; (-)) [Example 113, (−)-4-[6-(Cyclopropylmethoxy)-1-benzothiophen-2-yl]-4-oxo-2-[2-(4-oxo-1,2,3-benzotriazin-3(4H)-yl)ethyl]butanoic acid] | – | – | 4300 nM
O=C(CC(CCn1nnc2ccccc2c1=O)C(=O)O)c1cc2cc(OCCCC(F)(F)F)ccc2o1 (single isomer, unassigned; enantiomer 1) [Example 12, (−)-4-Oxo-2-[2-(4-oxo-1,2,3-benzotriazin-3(4H)-yl)ethyl]-4-[5-(4,4,4-trifluorobutoxy)-1-benzofur-2-yl]butanoic acid (enantiomer 1)] | – | – | 900 nM
O=C(CC(CCn1nnc2ccc(C(F)(F)F)cc2c1=O)C(=O)O)c1cc2ccc(OCC3CC3)cc2s1 (single isomer, unassigned; enantiomer 1) [Example 129, 4-[6-(Cyclopropylmethoxy)-1-benzothiophen-2-yl]-4-oxo-2-{2-[4-oxo-6-(trifluoromethyl)-1,2,3-benzotriazin-3(4H)-yl]ethyl}butanoic acid (enantiomer 1)] | – | – | 13 nM
O=C(CC(CCn1nnc2ccccc2c1=O)C(=O)O)c1noc2cc(OCc3ccc(F)cc3)ccc12 (single isomer, unassigned; enantiomer 1) [Example 137, 4-{6-[(4-Fluorobenzyl)oxy]-1,2-benzoxazol-3-yl}-4-oxo-2-[2-(4-oxo-1,2,3-benzotriazin-3(4H)-yl)ethyl]butanoic acid (enantiomer 1)] | – | – | 35 nM
O=C(O)[C@@H]1[C@@H](Cn2nnc3ccc(C(F)(F)F)cc3c2=O)CC[C@H]1C(=O)c1cc2cc(OCCc3ccccc3)ccc2o1 (single isomer, unassigned; enantiomer 1) [Example 158, (−)-(1RS,2SR,5RS)-2-{[4-Oxo-6-(trifluoromethyl)-1,2,3-benzotriazin-3(4H)-yl]methyl}-5-{[5-(2-phenylethoxy)-1-benzofur-2-yl]carbonyl}cyclopentanecarboxylic acid (enantiomer 1)] | – | – | 260 nM
O=C(CC(CCn1nnc2ccccc2c1=O)C(=O)O)c1noc2cc(OCc3ccc(F)cc3)ccc12 (single isomer, unassigned; enantiomer 2) [Example 138, 4-{6-[(4-Fluorobenzyl)oxy]-1,2-benzoxazol-3-yl}-4-oxo-2-[2-(4-oxo-1,2,3-benzotriazin-3(4H)-yl)ethyl]butanoic acid (enantiomer 2)] | – | – | 0.33 nM

Second part, the compound after the results:

CLblood (calculated blood clearance, well-stirred) (rat hepatocytes) | Fmax (maximum possible bioavailability after oral administration, well-stirred) (rat hepatocytes) | IC50 [1] | SMILES
– | – | 370 nM | O=C(CC(CCn1nnc2ccccc2c1=O)C(=O)O)c1cc2cc(OCC3CCCCC3)ccc2o1 (single isomer, unassigned; enantiomer 1) [Example 9, (−)-4-[5-(Cyclohexylmethoxy)-1-benzofur-2-yl]-4-oxo-2-[2-(4-oxo-1,2,3-benzotriazin-3(4H)-yl)ethyl]butanoic acid (enantiomer 1)]
– | – | 94 nM | O=C(CC(CCn1nnc2ccccc2c1=O)C(=O)O)c1cc2cc(OCC3CCCC3)ccc2o1 (single isomer, unassigned; enantiomer 1) [Example 17, (−)-4-[5-(Cyclopentylmethoxy)-1-benzofur-2-yl]-4-oxo-2-[2-(4-oxo-1,2,3-benzotriazin-3(4H)-yl)ethyl]butanoic acid (enantiomer 1)]
– | – | 15 nM | O=C(CC(CCn1nnc2ccccc2c1=O)C(=O)O)c1noc2cc(OCCC3CCCCC3)ccc12 (single isomer, unassigned; enantiomer 1) [Example 142, (−)-4-[6-(2-Cyclohexylethoxy)-1,2-benzoxazol-3-yl]-4-oxo-2-[2-(4-oxo-1,2,3-benzotriazin-3(4H)-yl)ethyl]butanoic acid (enantiomer 1)]
– | – | 0.62 nM | O=C(CC(CCn1nnc2ccccc2c1=O)C(=O)O)c1cc2cc(OCC3CCCCC3)ccc2o1 (single isomer, unassigned; enantiomer 2) [Example 10, (+)-4-[5-(Cyclohexylmethoxy)-1-benzofur-2-yl]-4-oxo-2-[2-(4-oxo-1,2,3-benzotriazin-3(4H)-yl)ethyl]butanoic acid (enantiomer 2)]
– | – | 6 nM | O=C(CC(CCn1nnc2ccccc2c1=O)C(=O)O)c1cc2cc(OCC3CCCC3)ccc2o1 (single isomer, unassigned; enantiomer 2) [Example 18, (+)-4-[5-(Cyclopentylmethoxy)-1-benzofur-2-yl]-4-oxo-2-[2-(4-oxo-1,2,3-benzotriazin-3(4H)-yl)ethyl]butanoic acid (enantiomer 2)]
– | – | 0.019 nM | O=C(CC(CCn1nnc2ccccc2c1=O)C(=O)O)c1noc2cc(OCCC3CCCCC3)ccc12 (single isomer, unassigned; enantiomer 2) [Example 143, (+)-4-[6-(2-Cyclohexylethoxy)-1,2-benzoxazol-3-yl]-4-oxo-2-[2-(4-oxo-1,2,3-benzotriazin-3(4H)-yl)ethyl]butanoic acid (enantiomer 2)]
